Our source for the Ki values is US10189836B2, “Therapeutic compounds, compositions and methods of use thereof” (Genentech, Inc., priority 2015, dated 2019).

For assay [1], the target named is isolated recombinant JAK1 kinase domain (Homo sapiens (Human), UniProt P23458). Nature of the assay: JAK1 enzyme assay (Caliper LabChip, Ki). The following applies: isolated recombinant JAK1 kinase domain, 1.5 nM enzyme, ATP 25 μM. The class given is biochemical.
For assay [2], the target named is isolated recombinant JAK2 kinase domain (Homo sapiens (Human), UniProt O60674). The experiment in a line: JAK2 enzyme assay (Caliper LabChip, Ki). Conditions: isolated recombinant JAK2 kinase domain, 0.2 nM enzyme, ATP 25 μM. The class given is biochemical.
Chain of isolated recombinant JAK2 kinase domain (O60674 849-1124): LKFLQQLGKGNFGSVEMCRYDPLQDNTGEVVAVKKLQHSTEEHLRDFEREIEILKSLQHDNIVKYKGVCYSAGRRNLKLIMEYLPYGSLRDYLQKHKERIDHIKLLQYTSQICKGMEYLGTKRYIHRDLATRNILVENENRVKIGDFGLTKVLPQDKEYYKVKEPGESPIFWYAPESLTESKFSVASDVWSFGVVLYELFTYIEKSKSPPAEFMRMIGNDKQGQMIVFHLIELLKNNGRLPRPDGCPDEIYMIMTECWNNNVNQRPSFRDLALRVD

Molecules are shown by their SMILES.

Chain of isolated recombinant JAK1 kinase domain (P23458 875-1153): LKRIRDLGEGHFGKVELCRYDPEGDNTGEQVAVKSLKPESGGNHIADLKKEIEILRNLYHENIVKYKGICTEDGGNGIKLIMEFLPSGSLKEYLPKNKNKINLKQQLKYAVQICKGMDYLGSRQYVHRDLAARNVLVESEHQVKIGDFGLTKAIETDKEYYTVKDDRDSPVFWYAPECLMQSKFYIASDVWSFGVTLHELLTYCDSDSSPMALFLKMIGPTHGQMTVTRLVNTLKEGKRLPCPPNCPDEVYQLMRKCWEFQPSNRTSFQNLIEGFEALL

On to `CN1CCN(C(=O)Cn2cc(Nc3nc4c(N5CC6CCC(C5)N6S(=O)(=O)Cc5ccc(C#N)cc5)cccn4n3)cn2)CC1` [Example 168, 4-[[3-[2-[[1-[2-(4-methylpiperazin-1-yl)-2-oxo-ethyl]pyrazo1-4-yl]amino]-[1,2,4]triazolo[1,5-a]pyridin-8-yl]-3,8-diazabicyclo[3.2.1]octan-8-yl]sulfonylmethyl]-benzonitrile], for which the Ki turned out to be 2.7 nM in assay [1] and 4.4 nM in assay [2].

`CSc1cccc(S(=O)(=O)N2C3CCC2CN(c2cccn4nc(Nc5cnn(CC(=O)N6CCN(C)CC6)c5)nc24)C3)c1` [Example 169, 1-(4-methylpiperazin-1-yl)-2-[4-[[8-[8-(3-methylsulfanylphenyl)sulfonyl-3,8-diazabicyclo[3.2.1]octan-3-yl]-[1,2,4]triazolo[1,5-a]pyridin-2-yl]amino]pyrazol-1-yl]ethanone]: the Ki in assay [1] and in assay [2] was 0.6 nM each time.

Turning to `CN1CCN(C(=O)Cn2cc(Nc3nc4c(N5CC6CCC(C5)N6C(=O)N5CC(F)C5)cccn4n3)cn2)CC1` [Example 170, 2-[4-[[8-[8-(3-fluoroazetidine-1-carbonyl)-3,8-diazabicyclo[3.2.1]octan-3-yl]-[1,2,4]triazolo[1,5-a]pyridin-2-yl]amino]pyrazol-1-yl]-1-(4-methylpiperazin-1-yl)ethanone], the Ki amounted to 0.3 nM in assay [1] and 0.2 nM in assay [2].

With `CSC1CN(C(=O)N2C3CCC2CN(c2cccn4nc(Nc5cnn(CC(=O)N6CCN(C)CC6)c5)nc24)C3)C1` [Example 171, 1-(4-methylpiperazin-1-yl)-2-[4-[[8-[8-(3-methylsulfanylazetidine-1-carbonyl)-3,8-diazabicyclo[3.2.1]octan-3-yl]-[1,2,4]triazolo[1,5-a]pyridin-2-yl]amino]pyrazol-1-yl]ethanone], the Ki came to 1.3 nM in assay [1] and 2.9 nM in assay [2].

As for `CSC1CCN(C(=O)N2C3CCC2CN(c2cccn4nc(Nc5cnn(CC(=O)N6CCN(C)CC6)c5)nc24)C3)C1` (stereo not shown) [Example 172, 1-(4-methylpiperazin-1-yl)-2-[4-[[8-[8-(3-methylsulfanylpyrrolidine-1-carbonyl)-3,8-diazabicyclo[3.2.1]octan-3-yl]-[1,2,4]triazolo[1,5-a]pyridin-2-yl]amino]pyrazol-1-yl]ethanone], the inhibitory constant (Ki) in assay [1] is 0.6 nM; in assay [2], 0.9 nM.

Consider `CN1CCN(C(=O)Cn2cc(Nc3nc4c(N5CC6CCC(C5)N6C(=O)N5CC(F)(F)C5)cccn4n3)cn2)CC1` [Example 173, 2-[4-[[8-[8-(3,3-difluoroazetidine-1-carbonyl)-3,8-diazabicyclo[3.2.1]octan-3-yl]-[1,2,4]triazolo[1,5-a]pyridin-2-yl]amino]pyrazol-1-yl]-1-(4-methylpiperazin-1-yl)ethanone], for which the Ki in assay [1] and in assay [2] was 0.5 nM in each case.

In the case of `CN1CCN(C(=O)Cn2cc(Nc3nc4c(N5CC6CCC(C5)N6S(=O)(=O)CCCC(F)(F)F)cccn4n3)cn2)CC1` [Example 174, 1-(4-methylpiperazin-1-yl)-2-[4-[[8-[8-(4,4,4-trifluorobutylsulfonyl)-3,8-diazabicyclo[3.2.1]octan-3-yl]-[1,2,4]triazolo[1,5-a]pyridin-2-yl]amino]pyrazol-1-yl]ethanone], the Ki in assay [1] was 0.7 nM; in assay [2] it was 1.1 nM.

As to `CN1CCN(C(=O)Cn2cc(Nc3nc4c(N5CC6CCC(C5)N6S(=O)(=O)c5cccnc5)cccn4n3)cn2)CC1` [Example 175, 1-(4-methylpiperazin-1-yl)-2-[4-[[8-[8-(3-pyridylsulfonyl)-3,8-diazabicyclo[3.2.1]octan-3-yl]-[1,2,4]triazolo[1,5-a]pyridin-2-yl]amino]pyrazol-1-yl]ethanone], the Ki in assay [1] came to 0.6 nM; in assay [2] it was 0.9 nM.

As for `CN1CCN(C(=O)Cn2cc(Nc3nc4c(N5CC6CCC(C5)N6S(=O)(=O)CCCC#N)cccn4n3)cn2)CC1` [Example 176, 4-[[3-[2-[[1-[2-(4-methylpiperazin-1-yl)-2-oxo-ethyl]pyrazol-4-yl]amino]-[1,2,4]triazolo[1,5-a]pyridin-8-yl]-3,8-diazabicyclo[3.2.1]octan-8-yl]sulfonyl]butanenitrile], the Ki in assay [1] is 0.7 nM; in assay [2], 3.4 nM.

As for `CN1CCN(C(=O)Cn2cc(Nc3nc4c(N5CC6CCC(C5)N6S(=O)(=O)C5CC5)cccn4n3)cn2)CC1` [Example 177, 2-[4-[[8-(8-cyclopropylsulfonyl-3,8-diazabicyclo[3.2.1]octan-3-yl)-[1,2,4]triazolo[1,5-a]pyridin-2-yl]amino]pyrazol-1-yl]-1-(4-methylpiperazin-1-yl)ethanone], the Ki in assay [1] came out at 2.1 nM; in assay [2] it was 7.5 nM.

In the case of `CN1CCN(C(=O)Cn2cc(Nc3nc4c(N5CC6CCC(C5)N6S(=O)(=O)C5CCCCC5)cccn4n3)cn2)CC1` [Example 178, 2-[4-[[8-(8-cyclohexylsulfonyl-3,8-diazabicyclo[3.2.1]octan-3-yl)-[1,2,4]triazolo[1,5-a]pyridin-2-yl]amino]pyrazol-1-yl]-1-(4-methylpiperazin-1-yl)ethanone; formic acid], the values for the Ki in assay [1] and in assay [2] were 1.8 nM and 1.5 nM, respectively.

Regarding `O=C(Cn1cc(Nc2nc3c(N4CC5CCC(C4)N5C(=O)CCC(F)(F)F)cccn3n2)cn1)N1CCC(N2CCn3nccc3C2)CC1` [Example 179, 1-[3-[2-[[1-[2-[4-(6,7-dihydro-4H-pyrazolo[1,5-a]pyrazin-5-yl)-1-piperidyl]-2-oxo-ethyl]pyrazol-4-yl]amino]-[1,2,4]triazolo[1,5-a]pyridin-8-yl]-3,8-diazabicyclo[3.2.1]octan-8-yl]-4,4,4-trifluoro-butan-1-one; formic acid], the Ki was 1.6 nM in assay [1] and 1.3 nM in assay [2].

Take `CSC1CCN(C(=O)N2C3CCC2CN(c2cccn4nc(Nc5cnn(CC(=O)N6CCN(C)CC6)c5)nc24)C3)CC1` [Example 180, 1-(4-methylpiperazin-1-yl)-2-[4-[[8-[8-(4-methylsulfanylpiperidine-1-carbonyl)-3,8-diazabicyclo[3.2.1]octan-3-yl]-[1,2,4]triazolo[1,5-a]pyridin-2-yl]amino]pyrazol-1-yl]ethanone]: the Ki in assay [1] worked out at 1.3 nM; in assay [2] it was 2.6 nM.

As to `CN1CCN(C(=O)Cn2cc(Nc3nc4c(N5CC6CCC(C5)N6C(=O)N5CCC(C(F)(F)F)C5)cccn4n3)cn2)CC1` (stereo not shown) [Example 181, 1-(4-methylpiperazin-1-yl)-2-[4-[[8-[8-(3-(trifluoromethyl)pyrrolidine-1-carbonyl]-3,8-diazabicyclo[3.2.1]octan-3-yl]-[1,2,4]triazolo[1,5-a]pyridin-2-yl]amino]pyrazol-1-yl]ethanone], the Ki is 0.8 nM in assay [1] and 1.3 nM in assay [2].

Take `CN1CCN(C(=O)Cn2cc(Nc3nc4c(N5CC6CCC(C5)N6C(=O)N5CCC(C#N)CC5)cccn4n3)cn2)CC1` [Example 182, 1-[3-[2-[[1-[2-(4-methylpiperazin-1-yl)-2-oxo-ethyl]pyrazol-4-yl]amino]-[1,2,4]triazolo[1,5-a]pyridin-8-yl]-3,8-diazabicyclo[3.2.1]octane-8-carbonyl]piperidine-4-carbonitrile]: the Ki in assay [1] was 0.6 nM; in assay [2] it was 0.9 nM.

Turning to `CN1CCN(C(=O)Cn2cc(Nc3nc4c(N5CC6CCC(C5)N6S(=O)(=O)Cc5ccc(C(F)(F)F)cc5)cccn4n3)cn2)CC1` [Example 184, 1-(4-methylpiperazin-1-yl)-2-[4-[[8-[8-([4-(trifluoromethyl)phenyl]methylsulfonyl]-3,8-diazabicyclo[3.2.1]octan-3-yl]-[1,2,4]triazolo[1,5-a]pyridin-2-yl]amino]pyrazol-1-yl]ethanone], the inhibitory constant (Ki) in assay [1] was found to be 1 nM; in assay [2], 2.3 nM.

Take `CSCCN1CCN(C(=O)Cn2cc(Nc3nc4c(N5CC6CCC(C5)N6C(=O)N5CC(C(F)(F)F)C5)cccn4n3)cn2)CC1` [Example 186, 1-[4-(2-methylsulfanylethyl)piperazin-1-yl]-2-[4-[[8-[8-(3-(trifluoromethyl)azetidine-1-carbonyl]-3,8-diazabicyclo[3.2.1]octan-3-yl]-[1,2,4]triazolo[1,5-a]pyridin-2-yl]amino]pyrazol-1-yl]ethanone; formic acid]: the Ki in assay [1] and in assay [2] was 0.2 nM in each case.

Consider `CN1CCN(C(=O)Cn2cc(Nc3nc4c(N5CC6CCC(C5)N6C(=O)N5CCC(F)(F)CC5)cccn4n3)cn2)CC1` [Example 188, 2-[4-[[8-[8-(4,4-difluoropiperidine-1-carbonyl)-3,8-diazabicyclo[3.2.1]octan-3-yl]-[1,2,4]triazolo[1,5-a]pyridin-2-yl]amino]pyrazol-1-yl]-1-(4-methylpiperazin-1-yl)ethanone], for which the Ki in assay [1] and in assay [2] was 0.2 nM each time.

In the case of `N#CC1(CNC2CCN(C(=O)Cn3cc(Nc4nc5c(N6CC7CCC(C6)N7C(=O)C6CC(C(F)(F)F)C6)cccn5n4)cn3)CC2)CC1` (stereo not shown) [Example 190, 1-[[[1-[2-[4-[[8-[8-[3-(trifluoromethyl)cyclo-butanecarbonyl]-3,8-diazabicyclo[3.2.1]octan-3-yl]-[1,2,4]triazolo[1,5-a]pyridin-2-yl]amino]pyrazol-1-yl]acetyl]-4-piperidyl]amino]methyl]-cyclopropanecarbonitrile], the values for the Ki in assay [1] and in assay [2] were 1 nM and 1.8 nM, respectively.

Turning to `N#CC1(CNC2CCN(C(=O)Cn3cc(Nc4nc5c(N6CC7CCC(C6)N7C(=O)C6CC(C(F)(F)F)C6)cccn5n4)cn3)CC2)CC1` (stereo not shown) [Example 191, 1-[[[1-[2-[4-[[8-[8-[3-(trifluoromethyl)cyclo-butanecarbonyl]-3,8-diazabicyclo[3.2.1]octan-3-yl]-[1,2,4]triazolo[1,5-a]pyridin-2-yl]amino]pyrazol-1-yl]acetyl]-4-piperidyl]amino]methyl]-cyclopropanecarbonitrile], the Ki in assay [1] came out at 3.5 nM; in assay [2], 7.8 nM.

What is called Ki is the dissociation constant of the complex between target and ligand, obtained from inhibition or displacement.
